The target in experiment [1] is T1, Estrogen receptor beta (Homo sapiens, UniProt Q92731).
Description: Binding affinity at human recombinant ERbeta
Experiment [2] concerns the target T2, Estrogen receptor (Homo sapiens, UniProt P03372).
T2 sequence (P03372 whole entry): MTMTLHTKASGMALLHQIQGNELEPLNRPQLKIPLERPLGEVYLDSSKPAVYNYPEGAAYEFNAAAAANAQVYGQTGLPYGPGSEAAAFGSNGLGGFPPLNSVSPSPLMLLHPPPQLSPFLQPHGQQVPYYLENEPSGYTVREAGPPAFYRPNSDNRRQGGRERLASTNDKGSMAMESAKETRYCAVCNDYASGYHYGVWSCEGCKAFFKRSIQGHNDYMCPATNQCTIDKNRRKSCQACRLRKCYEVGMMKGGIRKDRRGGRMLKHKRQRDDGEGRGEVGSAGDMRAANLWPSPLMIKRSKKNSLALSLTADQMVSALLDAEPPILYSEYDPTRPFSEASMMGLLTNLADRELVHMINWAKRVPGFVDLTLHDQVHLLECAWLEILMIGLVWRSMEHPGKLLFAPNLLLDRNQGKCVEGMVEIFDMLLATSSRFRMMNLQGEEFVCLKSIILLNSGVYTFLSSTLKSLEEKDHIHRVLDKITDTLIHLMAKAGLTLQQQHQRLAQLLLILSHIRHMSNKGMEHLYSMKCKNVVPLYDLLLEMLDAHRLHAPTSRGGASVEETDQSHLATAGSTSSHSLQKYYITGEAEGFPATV
The format is functional, cell-based, HEK293.
Description: Agonist activity at ERalpha expressed in HEK293 cells by transactivation assay

Experiment [3] deals with T3, Androgen receptor (Homo sapiens, UniProt P10275).
T3 sequence (P10275 whole entry): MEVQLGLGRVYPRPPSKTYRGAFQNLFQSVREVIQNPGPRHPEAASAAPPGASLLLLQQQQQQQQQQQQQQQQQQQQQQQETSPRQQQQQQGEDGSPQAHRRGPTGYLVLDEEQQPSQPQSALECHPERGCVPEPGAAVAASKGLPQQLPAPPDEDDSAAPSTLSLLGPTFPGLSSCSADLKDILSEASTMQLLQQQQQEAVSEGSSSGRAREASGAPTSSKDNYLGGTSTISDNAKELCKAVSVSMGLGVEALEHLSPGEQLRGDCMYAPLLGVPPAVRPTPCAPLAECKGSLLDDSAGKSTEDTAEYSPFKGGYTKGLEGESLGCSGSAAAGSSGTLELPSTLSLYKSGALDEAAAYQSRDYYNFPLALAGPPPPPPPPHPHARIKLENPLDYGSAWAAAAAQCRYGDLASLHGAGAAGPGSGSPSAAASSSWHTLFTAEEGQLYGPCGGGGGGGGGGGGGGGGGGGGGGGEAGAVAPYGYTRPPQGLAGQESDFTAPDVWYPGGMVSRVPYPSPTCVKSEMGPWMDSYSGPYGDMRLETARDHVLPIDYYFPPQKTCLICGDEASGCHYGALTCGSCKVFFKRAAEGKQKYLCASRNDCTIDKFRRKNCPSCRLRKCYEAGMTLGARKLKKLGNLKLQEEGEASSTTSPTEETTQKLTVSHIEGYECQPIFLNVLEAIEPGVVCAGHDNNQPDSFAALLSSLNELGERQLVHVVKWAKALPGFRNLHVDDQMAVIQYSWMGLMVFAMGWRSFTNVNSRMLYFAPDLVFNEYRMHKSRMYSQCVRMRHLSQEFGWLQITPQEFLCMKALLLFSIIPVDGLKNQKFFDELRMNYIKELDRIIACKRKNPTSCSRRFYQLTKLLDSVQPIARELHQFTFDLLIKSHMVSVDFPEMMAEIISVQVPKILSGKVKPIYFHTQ

Experiment [4] has as its target T1, Estrogen receptor beta. The format is functional, cell-based, HEK293.
Description: Agonist activity at ERbeta expressed in HEK293 cells by transactivation assay
In experiment [5] the target is T2, Estrogen receptor.
Description: Binding affinity at human recombinant ERalpha

Structures are written as SMILES. Where only a bound is given, the exact number is not on record here.

The record followed here is ChEMBL document CHEMBL1140529, “Androstene-3,5-dienes as ER-beta selective SERMs” (Bioorg Med Chem Lett, 2007).

As usually defined, the IC50 is the concentration that gives 50% inhibition. Low values mean inhibition by little substance, high ones a need for much substance. Broadly, the EC50 is the concentration needed to bring the measured effect to its halfway point.

T1 sequence (Q92731 whole entry): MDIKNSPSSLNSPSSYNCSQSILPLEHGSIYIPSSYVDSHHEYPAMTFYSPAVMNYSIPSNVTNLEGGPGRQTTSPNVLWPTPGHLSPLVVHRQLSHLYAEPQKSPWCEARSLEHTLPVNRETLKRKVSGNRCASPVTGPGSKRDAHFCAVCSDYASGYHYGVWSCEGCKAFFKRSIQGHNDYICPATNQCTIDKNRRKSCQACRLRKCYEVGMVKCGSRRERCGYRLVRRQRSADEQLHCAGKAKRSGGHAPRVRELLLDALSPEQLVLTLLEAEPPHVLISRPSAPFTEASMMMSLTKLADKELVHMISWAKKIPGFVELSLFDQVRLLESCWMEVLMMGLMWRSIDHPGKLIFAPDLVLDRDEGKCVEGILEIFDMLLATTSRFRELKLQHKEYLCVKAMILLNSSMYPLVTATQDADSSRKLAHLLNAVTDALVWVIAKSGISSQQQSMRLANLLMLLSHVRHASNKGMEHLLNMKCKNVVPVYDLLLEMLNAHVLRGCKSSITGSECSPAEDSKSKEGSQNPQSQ

Take `C#CC1(O)CC[C@H]2[C@@H]3CC=C4C=C(C)CC[C@]4(C=C)[C@H]3CC[C@@]21C` (single isomer, unassigned): the IC50 in experiment [1] came to 72 nM; in experiment [3], 1620 nM; in experiment [5] it was 1850 nM. In addition, the half-maximal effective concentration (EC50) in experiment [2] was 490 nM; in experiment [4] it was 31 nM.
With `C=C[C@]12CC[C@@](C)(O)CC1=CC[C@H]1[C@@H]3CC[C@H](O)[C@@]3(C)CC[C@@H]12`, the figures for the IC50 in experiment [1], in experiment [3] and in experiment [5] were 2490 nM, 2610 nM and above 10000 nM, respectively. Also, the EC50 in experiment [2] and in experiment [4] was above 1000 nM each time.
For `C=C[C@]12CC[C@](C)(O)CC1=CC[C@H]1[C@@H]3CC[C@H](O)[C@@]3(C)CC[C@@H]12`, the IC50 in experiment [1] amounted to 255 nM; in experiment [3], 842 nM; in experiment [5] it was 5300 nM. Moreover, the EC50 in experiment [2] was above 1000 nM; in experiment [4] it was 240 nM.
Consider `C#CC1(O)CC[C@H]2[C@@H]3CC=C4C[C@@H](O)CC[C@]4(C=C)[C@H]3CC[C@@]21C` (single isomer, unassigned), for which a half-maximal response in experiment [2] (EC50) required 130 nM. This molecule also yielded an IC50 in experiment [5] of 150 nM.
On to `C=C[C@]12CCC(c3ccccc3)=CC1=CC[C@H]1[C@@H]3CC[C@H](O)[C@@]3(C)CC[C@@H]12`, for which the results for the IC50 in experiment [1], in experiment [3] and in experiment [5] were 1760 nM, 3160 nM and above 10000 nM, respectively. Besides, the EC50 in experiment [2] and in experiment [4] was above 1000 nM in each case.
For the molecule `CC1=CC2=CC[C@H]3[C@@H]4CC[C@H](O)[C@@]4(C)CC[C@@H]3[C@@]2(C)CC1`, the figures for the IC50 in experiment [1] and in experiment [3] were 9.4 nM and 2250 nM, respectively. Also, the EC50 in experiment [4] was 220 nM.
Consider `C[C@]12CC[C@H]3[C@@H](CCC4=CC(=O)CC[C@@]43C)[C@@H]1CC[C@@H]2O` [TESTOSTERONE], for which the IC50 in experiment [1] is above 10000 nM.
As to `C=C[C@]12CCC(C)=CC1=CC[C@H]1[C@@H]3CC[C@H](O)[C@@]3(C)CC[C@@H]12`, the IC50 in experiment [1] amounted to 9 nM; in experiment [3], 560 nM; in experiment [5] it was 1440 nM. Moreover, the EC50 in experiment [2] was above 1000 nM; in experiment [4], 69 nM.
For `C=C[C@]12CCC(=C)C=C1CC[C@H]1[C@@H]3CC[C@H](O)[C@@]3(C)CC[C@@H]12` the same measures were 120 nM, 330 nM, above 10000 nM, 430 nM and 230 nM.
On to `C=C[C@]12CCC(C)=CC1=CC[C@@H]1[C@@H]2CC[C@@]2(C)[C@H]1CC[C@]2(C)O`, for which the IC50 in experiment [1] turned out to be 53 nM; in experiment [3], 520 nM; in experiment [5] it was 4380 nM. For the same molecule, the figures for the EC50 in experiment [2] and in experiment [4] were above 1000 nM and 480 nM, respectively.
For the molecule `C=C1C=C2CC[C@H]3[C@@H]4CC[C@H](O)[C@@]4(C)CC[C@@H]3[C@@]2(C)CC1`, the values for the IC50 in experiment [1] and in experiment [3] were 34 nM and 40 nM, respectively. Moreover, the EC50 in experiment [4] is 210 nM.
For the molecule `C=C[C@]12CCC(Cl)=CC1=CC[C@H]1[C@@H]3CC[C@H](O)[C@@]3(C)CC[C@@H]12`, the values for the IC50 in experiment [1] and in experiment [5] were 64 nM and 5740 nM, respectively. In addition, the EC50 worked out at 820 nM in experiment [2] and 170 nM in experiment [4].
With `C=C[C@]12CCC(CC)=CC1=CC[C@H]1[C@@H]3CC[C@H](O)[C@@]3(C)CC[C@@H]12`, the IC50 in experiment [1] came to 115 nM; in experiment [3], 500 nM; in experiment [5] it was 3110 nM. In addition, the EC50 in experiment [2] was above 1000 nM; in experiment [4], 565 nM.
On to `C=C[C@]12CC[C@H](O)CC1=CC[C@@H]1[C@@H]2CC[C@@]2(C)[C@H]1CC[C@]2(C)O`, for which the EC50 in experiment [2] was above 1000 nM; in experiment [4] it was 190 nM. In addition, in experiment [5], the IC50 worked out at 1050 nM.
